{"source": "ChEMBL document CHEMBL1157118", "about": "“Cooperative binding of a quinoline derivative to an RNA stem loop containing a dangling end” (Bioorg Med Chem Lett, 2010)", "type_in_all_cases": "nucleic-acid assay", "key": {"Nucleic Acid [1]": {"biological_target": "Nucleic Acid", "assay": "Binding affinity to 3'-dangling end of RNA1 by fluorescence spectroscopy analysis in presence of Triton X-100"}, "Nucleic Acid [2]": {"biological_target": "Nucleic Acid", "assay": "Binding affinity to 3'-dangling end of RNA1 by fluorescence spectroscopy analysis in absence of Triton X-100"}, "Nucleic Acid [3]": {"biological_target": "Nucleic Acid", "assay": "Binding affinity to 3'-dangling end of RNA1 ligand binding site 1 by isothermal titration calorimetry"}, "Nucleic Acid [4]": {"system": "Nucleic Acid", "assay": "Binding affinity to 3'-dangling end of RNA1 at 7.5 to 50 uM by CD spectroscopy"}, "Nucleic Acid [5]": {"system": "Nucleic Acid", "assay": "Binding affinity to 3'-dangling end of RNA1 by UV reverse titration method"}, "Nucleic Acid [6]": {"biological_target": "Nucleic Acid", "assay": "Binding affinity to 3'-dangling end of RNA1 ligand binding site 2 by isothermal titration calorimetry"}, "Nucleic Acid [7]": {"biological_target": "Nucleic Acid", "assay": "Binding affinity to 3'-dangling end of RNA1 ligand binding site 3 by isothermal titration calorimetry"}, "Nucleic Acid [8]": {"biological_target": "Nucleic Acid", "assay": "Binding affinity to 3'-dangling end of RNA1 ligand binding site 4 by isothermal titration calorimetry"}}, "note": "pKd: −log10 of the molar value. Activity calls are given as the source filed them. No cut-off for these calls is given here."}
{"smiles": "OC(CNc1ccnc2cc(Cl)ccc12)CNc1ccnc2cc(Cl)ccc12", "values": [{"measurement": "pKd", "setting": "Nucleic Acid [1]", "value": 4.92}, {"measurement": "pKd", "setting": "Nucleic Acid [2]", "value": 5.09}, {"measurement": "pKd", "setting": "Nucleic Acid [3]", "value": 4.97}, {"measurement": "Activity", "setting": "Nucleic Acid [4]", "value": "Active"}, {"measurement": "Activity", "setting": "Nucleic Acid [5]", "value": "Active"}, {"measurement": "pKd", "setting": "Nucleic Acid [6]", "value": 5.04}, {"measurement": "pKd", "setting": "Nucleic Acid [7]", "value": 5.09}, {"measurement": "pKd", "setting": "Nucleic Acid [8]", "value": 4.90}]}
